The values that follow come from patent US5593988A, “Therapeutic agent for osteoporosis and diazepine compound” (Yoshitomi Pharmaceutical Industries, Ltd., priority 1991, dated 1997).

Read-outs that look alike come from different tables or passages of the source.

The test system of the experiment is bone resorption (parietal bone). In words: Bone resorption-inhibitory activity (45Ca release from newborn mouse parietal bone, hPTH (1-34) stimulated, method of Raisz). Type of experiment: cell-based, ICR mouse. Conditions: for inhibition at 20 µM / inhibition at 5 µM: read-out: bone resorption-inhibitory action, % against control. The source says:
The method for determining the bone resorption-inhibitory activity of the Compound (I) and the results are shown in the following.
Bone resorption-inhibitory activity
The determination of the bone resorption-inhibitory activity basically followed the method of Raisz [J. Clin. Invest., vol. 44, pp. 103-116 (1965)].
A 1-2 days old new born ICR mouse was intraperitoneally administered with 1.5μ Ci ^45 Ca (CaCl2 solution of isotope of calcium) and parietal bone was asceptically removed the next day. The parietal bone was split into two along the central sature line and one of them was used as a control and the other was used for the experiment. The bone was preincubated in 0.5 ml of a BGJb medium (Fitton-Jackson modification, GIBCO Laboratories, U.S.A.) added with the test compound to a concentration of 5 μM or 20 μM and bovine serum albumin (1 mg/ml) at 37° C. for 2 days, and further incubated in the aforementioned medium containing 50 nM hPTH (1-34) for 3 days. After the incubation, the radioactivity of ^45 Ca in the medium and in the bone was measured and the ratio (%) of ^45 Ca released from the bone into the medium was calculated. [formula]
Using the bone obtained from the same mouse and treated in the same manner without the test compound as a control, the ratio (%) against the control was calculated according to the following equation. [formula]
The average of these values obtained from four pairs from each group was calculated.

The mark [1] stands for this setting: 20 μM, Table 20, average of four pairs.
The mark [2] stands for this setting: read-out: IC50 (figures in parentheses), bone resorption-inhibitory action.
Setting [3] is: Table 20, average of four pairs.

Regarding `CC(C)Cc1ccc(CCc2cc3c(s2)-n2cnnc2CN=C3c2ccccc2Cl)cc1` [compound 6], the inhibition at 20 µM worked out at 30.2%.
On to `CCCCCCCCCCCc1nnc2n1-c1ccccc1C(c1ccc(Cl)cc1)OC2` (stereo not drawn) [compound 516], for which the inhibition at 20 µM (20 μM, Table 21, average of four pairs) was found to be 22.4%.
In the case of `Cc1nnc2n1-c1sc(CCc3ccc(CC(C)C)cc3)cc1C(c1cccc(Cl)c1)=NC2` [compound 5], the inhibition at 20 µM stood at 26.7%.
In the case of `Cc1nnc2n1-c1ccccc1C(c1ccc(Cl)cc1)=NC2NC(=O)OCc1ccccc1` (stereo not drawn) [compound 504], the inhibition at 20 µM stood at 24.6%.
For the molecule `Cc1nnc2n1-c1sc(CCc3ccc(CC(C)C)cc3)cc1C(c1ccccc1Cl)=NC2CC(C)C` (stereo not drawn) [compound 43], under setting [1], the inhibition at 20 µM worked out at 21.2%.
`Cc1nnc2n1-c1ccc(Cl)cc1C(c1ccccc1)=NC2` [compound 69]: the inhibition at 20 µM came to 21.9%.
With `CCCC1N=C(c2ccc(Cl)cc2)c2cc(CCc3ccc(CC(C)C)cc3)sc2-n2c(C)nnc21` (stereo not drawn) [compound 42], the inhibition at 20 µM under setting [1] came to 16.9%.
With `COc1ccccc1NC(=O)NC1N=C(c2ccccc2)c2cc(Cl)ccc2-n2c(C)nnc21` (stereo not drawn) [compound 532], the inhibition at 20 µM was determined as 28.1%. The IC50 under setting [2] came to 0.93 µM.
`Cc1nnc2n1-c1sc(CCc3ccc(CC(C)C)cc3)cc1C(c1ccccc1Cl)=NC2Cc1ccccc1` (stereo not drawn) [compound 46]: the inhibition at 20 µM under setting [1] worked out at 21.1%.
Still for that read-out and setting: in the case of `CCc1cc2c(s1)-n1c(C)nnc1C(NC(=O)c1cc3ccccc3[nH]1)N=C2c1ccccc1Cl` (stereo not drawn) [compound 48] it was 25.7%.
Regarding `Cc1nnc2n1-c1sc(Cc3ccc(CC(C)C)cc3)cc1C(c1ccccc1Cl)=NC2` [compound 28], the inhibition at 20 µM came out at 16.5%.
Consider `CCc1cc2c(s1)-n1c(C)nnc1C(NC(=O)Nc1cccc(C)c1)N=C2c1ccccc1Cl` (stereo not drawn) [compound 51], for which the inhibition at 20 µM under setting [1] came to 26.9%.
On the same count and under the same terms, to `CCCCCCCCCCCc1nnc2n1-c1sc(CC)cc1C(c1ccc(OCCN(C)C)cc1)OC2` (stereo not drawn) [compound 354] belongs 23.2%; to `CCc1cc2c(s1)-n1c(C)nnc1C(NC(=O)c1ccccc1)N=C2c1ccccc1Cl` (stereo not drawn) [compound 50], 26.4%; to `CCCCCCCCCCCc1nnc2n1-c1sc(CC)cc1C(c1ccc(O)cc1)OC2` (stereo not drawn) [compound 302], 22.4%.
With `CC(C)Cc1ccc(CCc2nnc3n2-c2ccccc2C(c2ccc(Cl)cc2)=NC3)cc1` [compound 517], the inhibition at 20 µM turned out to be 47.3%.
Same read-out and setting: to `CCCCCCc1cc2c(s1)-n1c(C)nnc1CN=C2c1ccccc1C` [compound 22] belongs 23.4%.
With `CC(C)Cc1ccc(CCc2cc3c(s2)N(CCN(C)C)C(=O)CN=C3c2ccccc2Cl)cc1` [compound 64], under setting [1], the inhibition at 20 µM amounted to 25.2%.
For the molecule `Cc1nnc2n1-c1ccccc1C(c1ccc(Cl)cc1)=NC2NC(=O)C(=O)Nc1ccccc1` (stereo not drawn) [compound 530], the inhibition at 20 µM was 28.2%.
On the same count and under the same terms, to `CCc1cc2c(s1)-n1c(C)nnc1C(OC(=O)Nc1cccc(C)c1)N=C2c1ccc(OC)cc1` (stereo not drawn) [compound 257] belongs 27.1%.
The same measure, in the same setting: in the case of `COc1ccccc1NC(=O)NCC1N=C(c2ccc(Cl)cc2)c2ccccc2-n2c(C)nnc21` (stereo not drawn) [compound 505] it was 53.5%; in that of `COc1ccccc1NC(=O)OCC1N=C(c2ccccc2)c2ccccc2-n2c(C)nnc21` (stereo not drawn) [compound 509], 35%.
As for `CC(C)Cc1ccc(CCc2cc3c(s2)-n2c(nnc2C(C)(C)C)C(C)N=C3c2ccccc2Cl)cc1` (stereo not drawn) [compound 34], under setting [1], the inhibition at 20 µM worked out at 15.5%.
`Cc1cccc(NC(=O)NC2N=C(c3ccc(Cl)cc3)c3ccccc3-n3c(C)nnc32)c1` (stereo not drawn) [compound 503]: the inhibition at 20 µM was 30.4%.
On the same count and under the same terms, in the case of `COc1ccccc1NC(=O)NC1N=C(c2ccc(Cl)cc2)c2ccccc2-n2c(C)nnc21` (stereo not drawn) [compound 502] it was 31.8%.
On to `CCCCCCCCc1ccc(CCc2cc3c(s2)-n2c(C)nnc2CN=C3c2ccccc2Cl)cc1` [compound 29], for which, under setting [1], the inhibition at 20 µM came out at 16.4%.
Still for that read-out and setting: in the case of `Cc1nnc2n1-c1sc(CCCc3ccc(CC(C)C)cc3)cc1C(c1ccccc1Cl)=NC2` [compound 11] it was 23.4%.
As for `Cc1cccc(NC(=O)NC2N=C(c3cccs3)c3ccccc3-n3c(C)nnc32)c1` (stereo not drawn) [compound 521], the inhibition at 20 µM came out at 29.6%.
Regarding `CCc1cc2c(s1)-n1c(C)nnc1C(NC(=O)Nc1ccccc1)N=C2c1ccc(Cl)cc1` (stereo not drawn) [compound 87], the inhibition at 5 µM under setting [3] was 31.6%.
As to `CCCCCCc1cc2c(s1)NC(=O)CN=C2c1ccccc1Cl` [compound 60], the inhibition at 20 µM came out at 58.6%.
As to `CCc1cc2c(s1)-n1c(C)nnc1C(NC(=O)Nc1cccc(OC)c1)N=C2c1ccc(Cl)cc1` (stereo not drawn) [compound 76], the inhibition at 5 µM under setting [3] worked out at 29.5%.
The same measure, in the same setting: in the case of `CCc1cc2c(s1)-n1c(C3CCCCC3)nnc1C(NC(=O)Nc1ccccc1OC)N=C2c1ccccc1Cl` (stereo not drawn) [compound 100] it was 55.5%; in that of `CCCCc1cc2c(s1)-n1c(C)nnc1C(NC(=O)Nc1cccc(C)c1)N=C2c1ccc(Cl)cc1` (stereo not drawn) [compound 98], 35%; in that of `CCCCCCc1cc2c(s1)-n1c(C)nnc1C(NC(=O)Nc1cccc(C)c1)N=C2c1ccc(Cl)cc1` (stereo not drawn) [compound 78], 45.4%.
On to `CCc1cc2c(s1)-n1c(C)nnc1C(NC(=S)Nc1ccccc1)N=C2c1ccccc1Cl` (stereo not drawn) [compound 93], for which the inhibition at 5 µM under setting [3] stood at 63.5%.
For `Cc1ccc(S(=O)(=O)OCC2N=C(c3ccccc3)c3ccccc3-n3c(C)nnc32)cc1` (stereo not drawn) [compound 518], the inhibition at 20 µM came out at 45.4%.
With `Cc1cccc(N2C(=O)NC3(N=C(c4ccc(Cl)cc4)c4ccccc4-n4c(C)nnc43)C2=O)c1` (stereo not drawn) [compound 531], the inhibition at 20 µM was 34.4%.
The same measure, in the same setting: to `Cc1cccc(NC(=O)NCC2N=C(c3ccc(Cl)cc3)c3ccccc3-n3c(C)nnc32)c1` (stereo not drawn) [compound 506] belongs 32.5%.
In the case of `Cc1cccc(NC(=O)NC2N=C(c3ccccc3Cl)c3c(sc(C)c3C)-n3c(C)nnc32)c1` (stereo not drawn) [compound 83], the inhibition at 5 µM under setting [3] was determined as 35%.
For the molecule `CCc1cc2c(s1)-n1c(CCCc3ccc(CC(C)C)cc3)nnc1COC2c1ccc(Cl)cc1` (stereo not drawn) [compound 330], under setting [1], the inhibition at 20 µM is 35.6%.
On the same count and under the same terms, to `CCCN(CCC)C(=O)C1Cc2sc3c(c2C1)C(c1ccccc1Cl)=NCc1nnc(C)n1-3` (stereo not drawn) [compound 53] belongs 73.5%; to `Cc1nnc2n1-c1sc3c(c1C(c1ccccc1Cl)=NC2C)CC(C(=O)N1CCOCC1)C3` (stereo not drawn) [compound 54], 31.7%.
Turning to `Cc1nnc2n1-c1sc(CCCN3CCOCC3)cc1C(c1ccccc1Cl)=NC2C` (stereo not drawn) [compound 40], the inhibition at 20 µM came out at 32.8%.
For the molecule `CCc1cc2c(s1)-n1c(C)nnc1C(NC(=O)Nc1ccc(Cl)cc1)N=C2c1ccc(Cl)cc1` (stereo not drawn) [compound 75], under setting [3], the inhibition at 5 µM worked out at 47.7%.
Turning to `Cc1nnc2n1-c1ccccc1C(c1ccc(Cl)cc1)=NC2NS(=O)(=O)Cc1ccccc1` (stereo not drawn) [compound 507], the inhibition at 20 µM came out at 35.6%.
On the same count and under the same terms, to `Cc1nnc2n1-c1ccccc1C(c1ccc(Cl)cc1)=NC2Cc1c[nH]c2ccccc12` (stereo not drawn) [compound 508] belongs 48.1%; to `Cc1nnc2n1-c1sc(CCC(=O)N3CCOCC3)cc1C(c1ccccc1Cl)=NC2C` (stereo not drawn) [compound 38], 46%.
As to `Cc1nnc2n1-c1sc(CCc3ccc(CC(C)C)cc3)cc1C(c1ccccc1Cl)=NC2C` (stereo not drawn) [compound 9], the inhibition at 20 µM was 23.7%. Moreover, the half-maximal inhibitory concentration (IC50) under setting [2] turned out to be 7.5 µM.
Take `Cc1nnc2n1-c1ccccc1C(c1ccccc1)=NC2COC(=O)Cc1ccccc1` (stereo not drawn) [compound 511]: the inhibition at 20 µM is 37.7%.
For the molecule `Cc1nnc2n1-c1sc(CCc3ccc(CC(C)C)cc3)cc1C(c1ccc(O)cc1)=NC2` [compound 31], the inhibition at 20 µM was determined as 26.4%.
In the case of `Cc1nnc2n1-c1ccc(Cl)cc1C(c1ccccc1Cl)=NC2` [compound 68], the inhibition at 20 µM was 57.5%.
The same measure, in the same setting: in the case of `Cc1nnc2n1-c1sc(CCC(=O)N3CCOCC3)cc1C(c1ccccc1Cl)=NC2` [compound 19] it was 61.7%.
On the same count and under the same terms, in the case of `CCOC(=O)C1(NC(=O)Nc2cccc(C)c2)N=C(c2ccc(Cl)cc2)c2ccccc2-n2c(C)nnc21` (stereo not drawn) [compound 501] it was 29.5%.
In the case of `Cc1nnc2n1-c1sc(CCc3ccc(CC(C)C)cc3)cc1C(c1ccccc1Cl)OC2` (stereo not drawn) [compound 324], the inhibition at 20 µM under setting [1] was found to be 33.1%.
Regarding `Cc1nnc2n1-c1ccccc1C(c1ccc(Cl)cc1)=NC2NC(=O)Nc1cccnc1` (stereo not drawn) [compound 523], the inhibition at 20 µM is 26.7%.
Consider `CCCCCCCCCCCc1nnc2n1-c1sc(CC)cc1C(c1ccc(C)cc1)OC2` (stereo not drawn) [compound 357], for which the inhibition at 20 µM under setting [1] worked out at 24.7%.
On to `CCCCCCCCCCCCc1cc2c(s1)-n1c(C)nnc1CN=C2c1ccccc1Cl` [compound 27], for which the inhibition at 20 µM amounted to 17%.
For `CCc1cc2c(s1)-n1c(C)nnc1C(NC(=O)Nc1ccccc1OC)N=C2c1ccc(Cl)cc1` (stereo not drawn) [compound 90], under setting [3], the inhibition at 5 µM amounted to 34.2%. Besides, the IC50 (Table 20, read-out: IC50 (figures in parentheses), bone resorption-inhibitory action) stood at 0.25 µM.
In the case of `CCCCCCCCCCc1cc2c(s1)-n1c(C)nnc1CN=C2c1ccccc1OC` [compound 25], the inhibition at 20 µM turned out to be 17.5%.
The same measure, in the same setting: to `Cc1nnc2n1-c1sc3c(c1C(c1ccccc1Cl)=N[C@H]2C)CCN(C(=O)C1CC1)C3` [compound 52] belongs 29.9%.
